Patent US12187706B2, “NLRP3 modulators” (INNATE TUMOR IMMUNITY, INC., priority 2019, dated 2025)

target: T1, NLRP3 (Homo sapiens, UniProt Q96P20); assay: Measurement of IL-1β production in PMA-differentiated THP-1 cells (NLRP3 hIL1B); format: cell-based
T1 construct: host or cells: PMA-differentiated THP-1 cells
Experimental: Measurement of IL-1β Production in PMA-Differentiated THP-1 Cells
THP-1 cells were purchased from the American Type Culture Collection and sub-cultured according to instructions from the supplier. Prior to experiments, cells were cultured in RPMI 1640 containing 10% heat inactivated FBS, penicillin (100 units/ml) and streptomycin (100 μg/ml), and maintained in log phase prior to experimental setup. Prior to the experiment THP-1 were treated with PMA (Phorbol 12-myristate 13-acetate) (10 μg/ml) for 24 hours. The day of the experiment the media was removed and attaching cells were treated with trypsin for 2 minutes, cells were then collected, washed with PBS (phosphate buffer saline), spin down, resuspended in 2% heat inactivated FBS with RPMI at a concentration of 1×10^6 cells/ml, and 100 μl was plated in a 96 well plate. Compounds were dissolved in dimethyl sulfoxide (DMSO) and added to the culture medium to achieve desired concentration (e.g. 100, 30, 10, 3, 1, 0.3 or 0.1 μM). Cells were incubated with compounds for 4 hours. Cell free supernatant was collected and the production of IL-1β was evaluated by ELISA. A vehicle only control was run concurrently with each experiment. Final DMSO concentration was 1%.
Measurement of IL-1β Production in PMA-Differentiated THP-1 Cells (Alternative Procedure)
THP-1 cells were purchased from the American Type Culture Collection and sub-cultured according to instructions from the supplier. Prior to experiments, cells were cultured in RPMI 1640 containing 10% heat inactivated FBS, penicillin (100 units/ml), streptomycin (100 μg/ml), HEPES (10 mM) and sodium pyruvate (1 mM) and maintained in log phase prior to experimental setup. Prior to the experiment, THP-1 cells were treated with PMA (Phorbol 12-myristate 13-acetate) (20 μg/ml) overnight. The day of the experiment, the media was removed and attached cells were treated with trypsin for 2 minutes, cells were then collected, washed with PBS (phosphate buffer saline), pelleted by centrifugation and resuspended in 2% heat inactivated FBS with RPMI at a concentration of 50,000 cells/well in a 384 well plate. Cell free supernatant was collected and the production of IL-1β was evaluated by ELISA. Compounds were dissolved in dimethyl sulfoxide (DMSO) and added to the culture medium to achieve desired concentration (e.g. 100, 30, 10, 3, 1, 0.3 or 0.1 μM). Cells were incubated with compounds for 2 hours. A vehicle only control was run concurrently with each experiment. Final DMSO concentration was 1%.
Measurement of IL-1β Production—hTRF Protocol (Second Alternative Procedure)
Serial dilutions of compounds in DMSO were added to low volume 384 well plates at 100 nl/well using an ECHO 550 acoustic dispenser (Labcyte) to achieve final starting concentration of 10 μM in assay.
THP-1 cells in RPMI (Gibco, 11875) media with 10% FBS at a density of 1×10^6 cell/ml in a T175 flask were treated with a final concentration of phorbol 12-myristate 13-acetate (PMA) (Sigma, P1585) of 50 ng/ml overnight at 37° C. at 5% CO2 for differentiation. Cells were harvested the next day after rinsing well with dPBS using 0.5% trypsin. A cell solution was prepared of 1×10^6 cells/ml for 50,000 cells in 50 μl/well in RPMI media with 2% FBS. Cells were plated using a multichannel pipette onto the compound dilutions in Greiner, 384 well, black clear bottom tissue culture treated plates (781090). The plates were incubated in 37° C. incubator at 5% CO2 for 2 hours.
After the 2 hour incubation, the cell plates were spun in the centrifuge for 5 minutes at 1200 rpm. Using the Felix (CyBio), 8 μl of the supernatant was transferred to 384 well, low volume, white proxy plates. (Perkin Elmer, 6008230). A human IL1beta hTRF kit was used to analyze the supernatant (CISBIO, 62HIL1BPEG). The kit instructions were followed for preparing the IL1Beta standard curve and then the antibodies from the kit were diluted 1:40 rather than 1:20 as kit instructed.

T1 sequence (Q96P20 whole entry): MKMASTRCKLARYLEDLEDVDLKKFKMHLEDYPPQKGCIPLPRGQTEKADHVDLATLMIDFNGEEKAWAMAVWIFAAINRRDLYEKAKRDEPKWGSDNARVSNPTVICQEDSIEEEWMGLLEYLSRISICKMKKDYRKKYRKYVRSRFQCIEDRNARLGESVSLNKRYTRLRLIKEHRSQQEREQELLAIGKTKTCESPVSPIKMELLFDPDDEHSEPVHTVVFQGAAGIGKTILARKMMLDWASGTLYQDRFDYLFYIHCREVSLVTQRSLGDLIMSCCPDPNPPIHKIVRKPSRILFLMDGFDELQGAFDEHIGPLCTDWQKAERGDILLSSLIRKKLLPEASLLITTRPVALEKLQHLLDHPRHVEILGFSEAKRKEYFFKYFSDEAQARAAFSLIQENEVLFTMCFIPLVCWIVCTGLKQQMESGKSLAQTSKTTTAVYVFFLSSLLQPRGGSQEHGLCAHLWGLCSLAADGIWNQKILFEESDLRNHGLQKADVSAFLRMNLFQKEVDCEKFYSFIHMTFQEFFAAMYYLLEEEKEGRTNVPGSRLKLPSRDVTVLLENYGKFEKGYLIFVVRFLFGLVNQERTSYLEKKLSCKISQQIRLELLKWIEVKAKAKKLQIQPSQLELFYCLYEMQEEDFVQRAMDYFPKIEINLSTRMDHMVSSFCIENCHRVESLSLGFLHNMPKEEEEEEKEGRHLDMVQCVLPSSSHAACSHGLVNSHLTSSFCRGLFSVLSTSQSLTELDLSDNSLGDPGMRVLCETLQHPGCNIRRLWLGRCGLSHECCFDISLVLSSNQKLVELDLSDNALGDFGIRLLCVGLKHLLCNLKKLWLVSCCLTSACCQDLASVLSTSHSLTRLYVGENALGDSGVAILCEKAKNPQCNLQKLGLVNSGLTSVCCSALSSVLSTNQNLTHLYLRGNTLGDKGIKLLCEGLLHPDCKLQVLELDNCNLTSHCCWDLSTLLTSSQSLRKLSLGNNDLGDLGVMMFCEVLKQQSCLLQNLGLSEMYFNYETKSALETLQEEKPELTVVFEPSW

Compound | EC50
CC(C)(O)CNc1nc(N)nc2cc(-c3ccn[nH]3)ccc12 [Example 29] | 390 nM
Nc1nc(NCCc2cnc[nH]2)c2ccc(-c3ccn[nH]3)cc2n1 [Example 148] | 510 nM
Nc1nc(N[C@@H]2COC[C@H]2O)c2ccc(-c3ccn[nH]3)cc2n1 (racemic) [Example 25, trans-4-((2-amino-7-(1H-pyrazol-5-yl)quinazolin-4-yl)amino)tetrahydrofuran-3-ol] | 720 nM
CC(CCO)Nc1nc(N)nc2cc(-c3ccn[nH]3)ccc12 (single isomer, unassigned) [Example 201, 3-((2-amino-7-(1H-pyrazol-5-yl)quinazolin-4-yl)amino)butan-1-ol] | 70 nM
CC(C)(C)Nc1nc(N)nc2cc(-c3ccn[nH]3)ccc12 [Example 180] | 710 nM
Nc1nc(NCCOCCO)c2ccc(-c3ccn[nH]3)cc2n1 [Example 140] | 1020 nM
Nc1nc(NCc2cccnn2)c2ccc(-c3ccn[nH]3)cc2n1 [Example 142] | 510 nM
CN(C)c1cc(-c2cc[nH]n2)cc2nc(N)nc(NCCCO)c12 [Example 22, 3-((2-amino-5-(dimethylamino)-7-(1H-pyrazol-3-yl)quinazolin-4-yl)amino)propan-1-ol] | 9240 nM
Nc1nc(N[C@H]2CCCC[C@H]2O)c2ccc(-c3ccn[nH]3)cc2n1 [Example 67] | 2260 nM
C[C@]1(O)C[C@H](Nc2nc(N)nc3cc(-c4ccn[nH]4)ccc23)C1 [Example 192, (trans)-3-((2-amino-7-(1H-pyrazol-5-yl)quinazolin-4-yl)amino)-1-methylcyclobutan-1-ol] | 370 nM
Nc1nc(NCc2ccc(Cl)cn2)c2ccc(-c3ccn[nH]3)cc2n1 [Example 151] | 650 nM
Nc1nc(N[C@H]2CC[C@@H](O)C2)c2ccc(-c3ccn[nH]3)cc2n1 [Example 159] | 430 nM
Nc1nc(NCC2CCC(=O)N2)c2ccc(-c3ccn[nH]3)cc2n1 (stereo not drawn) [Example 43] | 1040 nM
Nc1nc(NCc2cc[nH]n2)c2ccc(-c3ccn[nH]3)cc2n1 [Example 27] | 430 nM
Nc1nc(N[C@H]2COCC[C@@H]2O)c2ccc(-c3ccn[nH]3)cc2n1 [Example 53] | 1350 nM
COc1cc(-c2cc[nH]n2)cc2nc(N)nc(NCCc3ccccn3)c12 [Example 134] | 1740 nM
Nc1nc(NCc2nccs2)c2ccc(-c3ccn[nH]3)cc2n1 [Example 28] | 240 nM
Nc1nc(N[C@H]2CCCC[C@H]2CO)c2ccc(-c3ccn[nH]3)cc2n1 (racemic) [Example 57] | 800 nM
Nc1nc(Nc2ccn(CCO)n2)c2ccc(-c3ccn[nH]3)cc2n1 [Example 115] | 18000 nM

Compound | EC50
Nc1nc(N[C@@H]2CCCOC2)c2ccc(-c3ccn[nH]3)cc2n1 [Example 104] | 390 nM
CCCCONc1nc(N)nc2cc(-c3ccn[nH]3)ccc12 [Example 95] | 630 nM
CN1CC[C@H](Nc2nc(N)nc3cc(-c4ccn[nH]4)ccc23)C1 [Example 139] | 1770 nM
Nc1nc(NCC2(O)CCC2)c2ccc(-c3ccn[nH]3)cc2n1 [Example 38] | 320 nM
Nc1nc(NC(CO)c2cccnc2)c2ccc(-c3ccn[nH]3)cc2n1 (stereo not drawn) [Example 62] | 1250 nM
COc1cc(-c2cc[nH]n2)cc2nc(N)nc(N[C@@H]3CCOC3)c12 [Example 133] | 650 nM
Nc1nc(N[C@H]2C[C@H](CO)C2)c2ccc(-c3ccn[nH]3)cc2n1 [Example 176] | 90 nM
COC(CO)CNc1nc(N)nc2cc(-c3ccn[nH]3)ccc12 (single isomer, unassigned) [Example 203, 3-((2-amino-7-(1H-pyrazol-5-yl)quinazolin-4-yl)amino)-2-methoxypropan-1-ol] | 450 nM
Nc1nc(NC[C@H]2C[C@H](O)C2)c2ccc(-c3ccn[nH]3)cc2n1 [Example 167] | 1240 nM
Nc1nc(NC[C@@H](O)CO)c2ccc(-c3ccn[nH]3)cc2n1 [Example 69] | 1860 nM
N#CCCNc1nc(N)nc2cc(-c3ccn[nH]3)ccc12 [Example 58] | 700 nM
Nc1nc(N[C@H](CO)Cc2c[nH]cn2)c2ccc(-c3ccn[nH]3)cc2n1 [Example 54] | 4010 nM
C[C@@]1(O)CC[C@@H](Nc2nc(N)nc3cc(-c4ccn[nH]4)ccc23)C1 (racemic) [Example 108] | 4170 nM
Nc1nc(NCc2cncnc2)c2c(F)cc(-c3cc[nH]n3)cc2n1 [Example 128] | 830 nM
Nc1nc(NCc2ccncn2)c2ccc(-c3ccn[nH]3)cc2n1 [Example 50] | 1870 nM
COCC1(CNc2nc(N)nc3cc(-c4cc[nH]n4)ccc23)CC1 [Example 196] | 230 nM
Nc1nc(N[C@@H]2CCCC[C@@H]2O)c2ccc(-c3ccn[nH]3)cc2n1 [Example 68] | 1100 nM
Nc1nc(N[C@H]2CCC[C@@H](O)C2)c2ccc(-c3ccn[nH]3)cc2n1 (single isomer, unassigned) [Example 178, (cis)-3-((2-amino-7-(1H-pyrazol-5-yl)quinazolin-4-yl)amino)cyclohexan-1-ol] | 660 nM
Nc1nc(NCC2(O)CC2)c2ccc(-c3cc[nH]n3)cc2n1 [Example 197] | 310 nM

Compound | EC50
COc1cccc(CNc2nc(N)nc3cc(-c4ccn[nH]4)ccc23)n1 [Example 160] | 650 nM
Nc1nc(NCC(F)(F)c2ccccn2)c2ccc(-c3ccn[nH]3)cc2n1 [Example 26] | 120 nM
Cc1cnc(CNc2nc(N)nc3cc(-c4ccn[nH]4)ccc23)cn1 [Example 80] | 710 nM
Nc1nc(NCCO)c2ccc(-c3ccn[nH]3)cc2n1 [Example 45] | 450 nM
Cc1cc(C)c(CNc2nc(N)nc3cc(-c4ccn[nH]4)ccc23)c(=O)[nH]1 [Example 143] | 1230 nM
Nc1nc(NCCn2cncn2)c2ccc(-c3ccn[nH]3)cc2n1 [Example 31] | 800 nM
Nc1nc(Nc2cn[nH]c2)c2ccc(-c3ccn[nH]3)cc2n1 [Example 112] | 240 nM
COc1cc(-c2cc[nH]n2)cc2nc(N)nc(NCc3cc[nH]n3)c12 [Example 132] | 2180 nM
Nc1nc(NCc2ncccn2)c2ccc(-c3ccn[nH]3)cc2n1 [Example 51] | 320 nM
Nc1nc(N[C@H]2C[C@H](O)C[C@@H]2O)c2ccc(-c3cc[nH]n3)cc2n1 (racemic) [Example 118] | 980 nM
Nc1nc(NC(CO)CO)c2ccc(-c3ccn[nH]3)cc2n1 [Example 74] | 780 nM
CC(CO)(CO)Nc1nc(N)nc2cc(-c3ccn[nH]3)ccc12 [Example 83] | 2410 nM
Nc1nc(NCC2(CO)CC2)c2ccc(-c3ccn[nH]3)cc2n1 [Example 204] | 180 nM
Nc1nc(NCc2cn[nH]c2)c2ccc(-c3ccn[nH]3)cc2n1 [Example 147] | 260 nM
Nc1nc(NC2CCC2)c2ccc(-c3ccn[nH]3)cc2n1 [Example 177] | 160 nM
Nc1nc(NCc2nc[nH]n2)c2ccc(-c3ccn[nH]3)cc2n1 [Example 32] | 640 nM
Nc1nc(NCC2CCC(=O)N2)c2ccc(-c3ccn[nH]3)cc2n1 (single isomer, unassigned) [Example 6, 5-(((2-amino-7-(1H-pyrazol-5-yl)quinazolin-4-yl)amino)methyl)pyrrolidin-2-one] | 2110 nM
Nc1nc(NC2CCS(=O)(=O)CC2)c2ccc(-c3ccn[nH]3)cc2n1 [Example 55] | 19700 nM
Cn1ncnc1COc1nc(N)nc2cc(-c3ccn[nH]3)ccc12 [Example 7, 4-((1-methyl-1H-1,2,4-triazol-5-yl)methoxy)-7-(1H-pyrazol-5-yl)quinazolin-2-amine] | 4460 nM
